Patent US20240101576A1, “HETEROCYCLIC INHIBITORS OF EGFR AND/OR HER2, FOR USE IN THE TREATMENT OF CANCER” (Scorpion Therapeutics, Inc., priority 2020, published 2024)
pIC50: −log10 of the molar value.

Tests used:
Type in all cases: cell-based
EGFR L858R (Ba/F3 cells) = molecular target: T1, EGFR L858R (Ba/F3 cells) (Homo sapiens, UniProt P00533, L858R); assay: Inhibitor activity on EGFR-dependent cell growth (CellTiter-Glo, 72 h), Ba/F3 EGFR L858R; settings: read-out: BaF3 L858R IC50
T1 construct: expressed in transfected cells; host or cells: Ba/F3 (murine pro-B cells), retroviral transduction, puromycin selection, IL3-independent pool
T1 sequence (P00533 25-1210 L858R): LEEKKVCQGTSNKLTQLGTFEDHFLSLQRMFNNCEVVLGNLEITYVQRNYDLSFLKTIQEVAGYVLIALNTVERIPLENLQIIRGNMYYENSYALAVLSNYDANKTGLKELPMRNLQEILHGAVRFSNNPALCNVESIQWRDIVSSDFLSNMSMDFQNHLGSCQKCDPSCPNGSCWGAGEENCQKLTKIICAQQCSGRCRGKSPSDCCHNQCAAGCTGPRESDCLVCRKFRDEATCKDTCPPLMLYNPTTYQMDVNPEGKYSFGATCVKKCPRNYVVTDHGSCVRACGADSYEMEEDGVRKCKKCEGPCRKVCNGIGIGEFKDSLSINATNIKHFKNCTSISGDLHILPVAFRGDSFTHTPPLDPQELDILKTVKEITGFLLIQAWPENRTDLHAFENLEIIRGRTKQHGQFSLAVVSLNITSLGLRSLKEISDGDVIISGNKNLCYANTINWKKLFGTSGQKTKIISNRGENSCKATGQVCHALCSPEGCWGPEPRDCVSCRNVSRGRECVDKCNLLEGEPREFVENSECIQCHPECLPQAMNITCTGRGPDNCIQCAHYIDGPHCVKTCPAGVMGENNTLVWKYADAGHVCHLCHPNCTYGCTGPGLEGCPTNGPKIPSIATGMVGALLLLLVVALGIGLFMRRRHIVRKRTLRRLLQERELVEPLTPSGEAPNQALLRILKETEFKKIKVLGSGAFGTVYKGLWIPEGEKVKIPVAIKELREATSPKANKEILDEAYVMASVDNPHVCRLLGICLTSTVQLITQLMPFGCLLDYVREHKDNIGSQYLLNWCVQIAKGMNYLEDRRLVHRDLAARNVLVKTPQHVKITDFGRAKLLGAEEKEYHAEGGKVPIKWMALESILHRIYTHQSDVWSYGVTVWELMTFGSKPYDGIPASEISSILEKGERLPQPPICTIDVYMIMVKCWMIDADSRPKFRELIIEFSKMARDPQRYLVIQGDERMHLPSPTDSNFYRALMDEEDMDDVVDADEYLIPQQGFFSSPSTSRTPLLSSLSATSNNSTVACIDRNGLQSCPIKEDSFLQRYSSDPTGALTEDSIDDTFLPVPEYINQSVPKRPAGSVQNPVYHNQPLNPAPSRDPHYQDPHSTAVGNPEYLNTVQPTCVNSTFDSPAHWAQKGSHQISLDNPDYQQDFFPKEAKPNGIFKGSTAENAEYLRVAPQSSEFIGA
Text: (§1) Example A. Inhibitor Activity on EGFR-Dependent Cell Growth
(§2) Cell lines are generated by transducing Ba/F3 cells with retroviruses containing vectors with EGFR WT, EGFR L858R, EGFR exon 19del, EGFR L858R/C797S, EGFR exon 20 NPG Ins D770_N771, EGFR exon 20 ASV Ins V769_D770, EGFR exon 20 SVD Ins D770_N771, or EGFR exon 20 FQEA Ins A763_V764 genes and a puromycin selection marker. Transduced cells are selected with puromycin for 7 days and are then be transferred into culture media without Interleukin 3 (IL3). EGFR WT cells are maintained with supplemental EGF. Surviving cells are confirmed to express EGFR by Western blot and maintained as a pool. The IC50 date were included in Table 6 and Table 7.
(§3) 1.1 Cells are harvested from flask into cell culture medium and the cell number counted.
(§4) 1.2 Cells are diluted with culture medium to the desired density and 40 μL of cell suspension is added into each well of 384-well cell culture plate and the seeding density is 800 (FQEA, exon 19del), 600 (WT, NPG, L858R/C797S), or 400 (ASV, SVD, L858R) cells/well.
(§5) 2 Compound Preparation and Treatment
(§6) 2.1 Test compounds are dissolved to 10 mM in a DMSO stock solution. 45 μL of stock solution is transferred to a 384 polypropylene plate (pp-plate). Perform 3-fold, 10-point dilution via transferring 15 μL compound into 30 μL DMSO using a TECAN (EVO200) liquid handler.
(§7) 2.2 Spin plates at room temperature at 1,000 RPM for 1 minute.
(§8) 2.3 Transfer 120 nL of diluted compound from compound source plate into the cell plate.
(§9) 2.4 After compound treatment for 72 hours, perform CTG detection for compound treatment plates as described in “Detection” section.
(§10) 3.1 Plates are removed from incubators and equilibrated at room temperature for 15 minutes.
(§11) 3.2 Thaw the CellTiter Glo reagents and allow to equilibrate to room temperature before the experiment.
(§12) 3.3 Add 40 μL of CellTiter-Glo reagent into each well (at 1:1 to culture medium). Then place the plates at room temperature for 30 min followed by reading on EnVision.
(§13) 4.1 Inhibition activity is calculated following the formula below:
(§14) % Inhibition=100×(LumHC−LumSample)/(LumHC−LumLC) • where HC is obtained from cells treated with 0.1% DMSO only; and LC is obtained from culture medium only.
(§15) 4.2 2. Calculate the IC50 by fitting the Curve using Xlfit (v5.3.1.3), equation 201.
(§16) Y=Bottom+(Top−Bottom)/(1+10^((Log IC50−X)*HillSlope))

[1] = molecular target: EGFR exon 19del (Ba/F3 cells) (Homo sapiens, UniProt P00533); assay: Inhibitor activity on EGFR-dependent cell growth (CellTiter-Glo, 72 h), Ba/F3 EGFR exon 19del; settings: Ba/F3 EGFR exon 19del cell growth, read-out: BaF3 Del19 IC50
Text: as §1, §2, §3, §4, §5, §6, §7, §8, §9, §10, §11, §12, §13, §14, §15, §16

EGFR WT (Ba/F3 cells) = molecular target: T2, EGFR WT (Ba/F3 cells) (Homo sapiens, UniProt P00533); assay: Inhibitor activity on EGFR-dependent cell growth (CellTiter-Glo, 72 h), Ba/F3 EGFR WT; settings: read-out: BaF3 WT IC50
T2 construct: expressed in transfected cells; host or cells: Ba/F3 (murine pro-B cells), retroviral transduction, puromycin selection, maintained with EGF
T2 sequence (P00533 25-1210): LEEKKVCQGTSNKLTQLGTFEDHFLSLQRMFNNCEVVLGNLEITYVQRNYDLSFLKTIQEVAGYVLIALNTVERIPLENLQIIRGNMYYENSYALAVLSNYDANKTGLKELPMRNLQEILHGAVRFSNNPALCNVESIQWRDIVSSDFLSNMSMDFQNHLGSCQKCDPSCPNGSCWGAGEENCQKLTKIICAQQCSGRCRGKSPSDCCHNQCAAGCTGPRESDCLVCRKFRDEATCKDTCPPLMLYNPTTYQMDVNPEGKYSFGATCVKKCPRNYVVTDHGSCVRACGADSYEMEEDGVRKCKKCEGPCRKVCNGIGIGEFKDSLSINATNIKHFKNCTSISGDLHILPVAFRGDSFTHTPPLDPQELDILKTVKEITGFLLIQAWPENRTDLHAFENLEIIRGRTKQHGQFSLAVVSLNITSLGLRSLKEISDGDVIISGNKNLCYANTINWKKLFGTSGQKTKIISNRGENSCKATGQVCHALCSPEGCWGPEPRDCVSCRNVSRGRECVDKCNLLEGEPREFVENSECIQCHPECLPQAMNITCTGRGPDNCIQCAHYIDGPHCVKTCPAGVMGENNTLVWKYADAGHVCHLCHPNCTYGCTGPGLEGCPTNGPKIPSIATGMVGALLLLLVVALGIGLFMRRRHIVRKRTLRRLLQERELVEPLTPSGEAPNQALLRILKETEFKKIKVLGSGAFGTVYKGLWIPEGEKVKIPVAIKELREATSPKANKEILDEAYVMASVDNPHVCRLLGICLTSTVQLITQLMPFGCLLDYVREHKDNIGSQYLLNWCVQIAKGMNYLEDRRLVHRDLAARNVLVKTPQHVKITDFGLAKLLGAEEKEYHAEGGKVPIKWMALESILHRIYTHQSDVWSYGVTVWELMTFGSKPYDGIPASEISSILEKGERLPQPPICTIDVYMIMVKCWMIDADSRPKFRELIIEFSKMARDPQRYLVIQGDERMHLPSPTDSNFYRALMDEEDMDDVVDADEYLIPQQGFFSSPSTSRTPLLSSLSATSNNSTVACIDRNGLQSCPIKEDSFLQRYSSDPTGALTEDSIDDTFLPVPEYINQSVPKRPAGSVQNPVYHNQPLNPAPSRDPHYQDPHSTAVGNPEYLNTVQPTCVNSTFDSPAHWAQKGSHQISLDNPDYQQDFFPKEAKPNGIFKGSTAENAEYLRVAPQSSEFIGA
Procedure, shortened: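 This growth assay used Ba/F3 cells that depend on wild-type EGFR and are kept in EGF without IL3. Compounds were made up as 10 mM DMSO stocks and diluted 3-fold over 10 points. 120 nL went onto 600 cells/well. After 72 hours, 40 μL CellTiter-Glo was added and luminescence read on EnVision after 30 min.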

[2] = molecular target: T3, EGFR exon 20 ASV Ins V769_D770 (Ba/F3 cells) (Homo sapiens, UniProt P00533, INS769ASV); assay: Inhibitor activity on EGFR-dependent cell growth (CellTiter-Glo, 72 h), Ba/F3 EGFR exon 20 ASV Ins; settings: read-out: BaF3 ASV IC50
T3 construct: expressed in transfected cells; host or cells: Ba/F3 (murine pro-B cells), retroviral transduction, puromycin selection, IL3-independent pool
Procedure, shortened: (§17)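 IC50s derive from a sigmoidal dose–response fit of CellTiter-Glo signal. The signal was normalised between […]-treated cells and cell-free medium. Ba/F3 mutant-EGFR cells, seeded at 400–800/well depending on the line, had 72 h of exposure to a 10-point, 3-fold compound series.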

[3] = molecular target: T4, EGFR exon 20 SVD Ins D770_N771 (Ba/F3 cells) (Homo sapiens, UniProt P00533, INS770SVD); assay: Inhibitor activity on EGFR-dependent cell growth (CellTiter-Glo, 72 h), Ba/F3 EGFR exon 20 SVD Ins; settings: read-out: BaF3 SVD IC50
T4 construct: expressed in transfected cells; host or cells: Ba/F3 (murine pro-B cells), retroviral transduction, puromycin selection, IL3-independent pool
T4 sequence (P00533 with tags, fused parts or gaps INS770SVD): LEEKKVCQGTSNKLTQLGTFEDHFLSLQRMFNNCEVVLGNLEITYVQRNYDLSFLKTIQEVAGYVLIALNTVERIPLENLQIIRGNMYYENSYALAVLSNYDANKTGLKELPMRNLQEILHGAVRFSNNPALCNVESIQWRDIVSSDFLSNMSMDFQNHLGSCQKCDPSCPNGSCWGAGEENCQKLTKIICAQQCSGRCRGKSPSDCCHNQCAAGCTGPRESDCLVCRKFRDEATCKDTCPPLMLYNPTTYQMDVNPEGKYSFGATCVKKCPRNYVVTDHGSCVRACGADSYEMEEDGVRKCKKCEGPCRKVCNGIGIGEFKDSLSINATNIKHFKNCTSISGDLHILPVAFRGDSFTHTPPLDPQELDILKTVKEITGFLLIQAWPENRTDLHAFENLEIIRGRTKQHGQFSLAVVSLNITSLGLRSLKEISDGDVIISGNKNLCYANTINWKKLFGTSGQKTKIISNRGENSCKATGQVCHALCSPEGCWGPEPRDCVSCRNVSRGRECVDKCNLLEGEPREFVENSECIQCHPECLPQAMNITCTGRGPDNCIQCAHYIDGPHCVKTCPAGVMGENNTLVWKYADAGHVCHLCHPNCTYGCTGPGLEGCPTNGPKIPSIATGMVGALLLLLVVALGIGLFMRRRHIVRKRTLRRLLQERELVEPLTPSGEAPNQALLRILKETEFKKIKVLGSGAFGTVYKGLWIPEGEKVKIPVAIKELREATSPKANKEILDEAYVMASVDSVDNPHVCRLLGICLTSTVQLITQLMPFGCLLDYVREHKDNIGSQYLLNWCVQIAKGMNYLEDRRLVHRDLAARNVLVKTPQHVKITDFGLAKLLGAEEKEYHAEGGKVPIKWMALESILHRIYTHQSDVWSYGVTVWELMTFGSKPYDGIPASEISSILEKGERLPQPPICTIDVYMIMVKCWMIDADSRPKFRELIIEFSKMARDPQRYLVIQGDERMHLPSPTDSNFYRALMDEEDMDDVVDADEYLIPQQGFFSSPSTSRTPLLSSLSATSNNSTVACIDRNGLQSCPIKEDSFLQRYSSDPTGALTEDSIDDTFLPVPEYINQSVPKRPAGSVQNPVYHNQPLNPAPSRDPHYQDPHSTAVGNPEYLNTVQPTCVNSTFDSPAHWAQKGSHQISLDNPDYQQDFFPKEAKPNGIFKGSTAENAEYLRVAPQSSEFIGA
Procedure, shortened: as §17

[4] = molecular target: T5, EGFR exon 20 FQEA Ins A763_V764 (Ba/F3 cells) (Homo sapiens, UniProt P00533, INS763FQEA); assay: Inhibitor activity on EGFR-dependent cell growth (CellTiter-Glo, 72 h), Ba/F3 EGFR exon 20 FQEA Ins; settings: read-out: BaF3 FQEA IC50
T5 construct: expressed in transfected cells; host or cells: Ba/F3 (murine pro-B cells), retroviral transduction, puromycin selection, IL3-independent pool
T5 sequence (P00533 with tags, fused parts or gaps INS763FQEA): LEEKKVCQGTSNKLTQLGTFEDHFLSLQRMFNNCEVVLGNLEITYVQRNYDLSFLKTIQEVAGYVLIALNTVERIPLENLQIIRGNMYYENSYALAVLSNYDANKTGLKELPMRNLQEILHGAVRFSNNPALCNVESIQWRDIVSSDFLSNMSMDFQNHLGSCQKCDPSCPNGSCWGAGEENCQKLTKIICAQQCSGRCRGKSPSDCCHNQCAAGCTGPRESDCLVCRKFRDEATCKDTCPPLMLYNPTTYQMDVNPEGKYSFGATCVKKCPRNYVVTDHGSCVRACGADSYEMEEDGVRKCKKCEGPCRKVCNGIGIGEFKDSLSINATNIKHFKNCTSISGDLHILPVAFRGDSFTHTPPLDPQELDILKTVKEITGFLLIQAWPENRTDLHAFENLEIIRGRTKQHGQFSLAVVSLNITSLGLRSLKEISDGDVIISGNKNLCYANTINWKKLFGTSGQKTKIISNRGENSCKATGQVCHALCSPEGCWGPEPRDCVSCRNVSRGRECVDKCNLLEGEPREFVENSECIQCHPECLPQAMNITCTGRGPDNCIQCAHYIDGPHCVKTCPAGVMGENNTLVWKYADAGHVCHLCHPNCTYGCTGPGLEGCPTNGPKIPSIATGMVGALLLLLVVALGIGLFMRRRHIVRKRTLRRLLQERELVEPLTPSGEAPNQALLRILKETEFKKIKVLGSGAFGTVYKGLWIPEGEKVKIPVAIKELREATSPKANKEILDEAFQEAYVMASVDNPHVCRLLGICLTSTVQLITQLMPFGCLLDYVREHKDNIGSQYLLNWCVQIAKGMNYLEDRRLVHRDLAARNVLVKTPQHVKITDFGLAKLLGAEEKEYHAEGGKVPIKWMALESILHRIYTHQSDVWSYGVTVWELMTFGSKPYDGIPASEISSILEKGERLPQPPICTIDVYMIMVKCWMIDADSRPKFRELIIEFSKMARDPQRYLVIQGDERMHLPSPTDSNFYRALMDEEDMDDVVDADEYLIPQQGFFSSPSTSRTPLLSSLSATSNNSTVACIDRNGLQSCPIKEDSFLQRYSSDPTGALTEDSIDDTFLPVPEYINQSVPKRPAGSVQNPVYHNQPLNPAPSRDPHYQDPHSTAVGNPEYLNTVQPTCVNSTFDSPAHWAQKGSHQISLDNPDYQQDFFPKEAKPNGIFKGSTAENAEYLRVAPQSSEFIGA
Procedure, shortened: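 72 h proliferation, Ba/F3 EGFR mutants (no IL3, puromycin-selected pools, EGFR confirmed by Western blot). Seeding of 400 L858R, 600 L858R/C797S and 800 exon 19del/FQEA cells per well. CellTiter-Glo used; controls were […] (high) and medium alone (low).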

[5] = molecular target: T6, EGFR exon 20 NPG Ins D770_N771 (Ba/F3 cells) (Homo sapiens, UniProt P00533, INS770NPG); assay: Inhibitor activity on EGFR-dependent cell growth (CellTiter-Glo, 72 h), Ba/F3 EGFR exon 20 NPG Ins; settings: read-out: BaF3 NPG IC50
T6 construct: expressed in transfected cells; host or cells: Ba/F3 (murine pro-B cells), retroviral transduction, puromycin selection, IL3-independent pool
Procedure, shortened: as §17

[6] = molecular target: T6, EGFR exon 20 NPG Ins D770_N771 (Ba/F3 cells); assay: Inhibitor activity on EGFR phosphorylation (pEGFR AlphaLISA, 2 h), Ba/F3 EGFR exon 20 NPG Ins
Procedure, shortened: (§18)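 Steps: seed cells (Ba/F3 50K, CUTO14 12.5K per well); add 3-fold, 10-point compound dilution; incubate 2 h; lyse 1 hr; add acceptor then donor beads (1.5 hrs, RT, dark); read AlphaLISA signal for IC50.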

[7] = molecular target: T3, EGFR exon 20 ASV Ins V769_D770 (Ba/F3 cells); assay: Inhibitor activity on EGFR phosphorylation (pEGFR AlphaLISA, 2 h), Ba/F3 EGFR exon 20 ASV Ins; settings: EGFR phosphorylation, AlphaLISA, 2 hours; read-out: ASV IC50 (pEGFR)
Procedure, shortened: as §18

## COc1c(F)cccc1Nc1c(-c2ccnc3ccoc23)[nH]c2c1C(=O)NCC2 [Compound 553, 3-[(3-fluoro-2-methoxyphenyl)amino]-2-{furo[3,2-b]pyridin-7-yl}-1H,5H,6H,7H-pyrrolo[3,2-c]pyridin-4-one]
EGFR L858R (Ba/F3 cells)
  pIC50: > 7.00
[1]
  pIC50: > 7.00
EGFR WT (Ba/F3 cells)
  pIC50: 6.00 to 7.00
[2]
  pIC50: > 7.00
[3]
  pIC50: > 7.00
[4]
  pIC50: > 7.00

## COc1c(Cl)cccc1Nc1c(-c2ccnc3ccc(OC4CC(F)(F)C4)nc23)[nH]c2c1C(=O)NCC2 [Compound 766, 3-[(3-chloro-2-methoxyphenyl)amino]-2-[6-(3,3-difluorocyclobutoxy)-1,5-naphthyridin-4-yl]-1H,5H,6H,7H-pyrrolo[3,2-c] pyridin-4-one]
EGFR L858R (Ba/F3 cells)
  pIC50: > 7.00
[1]
  pIC50: > 7.00
EGFR WT (Ba/F3 cells)
  pIC50: 6.00 to 7.00
[5]
  pIC50: > 7.00
[2]
  pIC50: > 7.00
[3]
  pIC50: > 7.00
[4]
  pIC50: > 7.00

## Cc1ccc2nccc(-c3[nH]c4c(c3Nc3cccc(F)c3C)C(=O)NCC4)c2n1 [Compound 810, 3-[(3-fluoro-2-methylphenyl)amino]-2-(6-methyl-1,5-naphthyridin-4-yl)-1H,5H,6H,7H-pyrrolo[3,2-c]pyridin-4-one]
EGFR L858R (Ba/F3 cells)
  pIC50: > 7.00
[1]
  pIC50: > 7.00
EGFR WT (Ba/F3 cells)
  pIC50: 6.00 to 7.00
[2]
  pIC50: > 7.00
[3]
  pIC50: > 7.00
[4]
  pIC50: > 7.00

## COc1c(Cl)cccc1Nc1c(-c2ccnc3[nH]cnc23)[nH]c2c1C(=O)NCC2 [compound 290]
EGFR L858R (Ba/F3 cells)
  pIC50: > 7.00
[1]
  pIC50: > 7.00
EGFR WT (Ba/F3 cells)
  pIC50: 6.00 to 7.00
[5]
  pIC50: 6.00 to 7.00
[2]
  pIC50: > 7.00
[3]
  pIC50: > 7.00
[4]
  pIC50: > 7.00
[6]
  pIC50: > 7.00
[7]
  pIC50: > 7.00

## COCc1ccc2nccc(-c3[nH]c4c(c3Nc3cccc(Cl)c3OC)C(=O)NCC4)c2n1 [compound 679, 3-[(3-chloro-2-methoxyphenyl)amino]-2-[6-(methoxymethyl)-1,5-naphthyridin-4-yl]-1H,5H,6H,7H-pyrrolo[3,2-c]pyridin-4-one]
EGFR L858R (Ba/F3 cells)
  pIC50: > 7.00
[1]
  pIC50: > 7.00
EGFR WT (Ba/F3 cells)
  pIC50: > 7.00
[5]
  pIC50: > 7.00
[2]
  pIC50: > 7.00
[3]
  pIC50: > 7.00
[4]
  pIC50: > 7.00

## CCO[C@@H](C)c1ccc2nccc(-c3[nH]c4c(c3Nc3cccc(Cl)c3OC)C(=O)NCC4)c2n1 [compound 754, 3-[(3-chloro-2-methoxyphenyl)amino]-2-[6-[(1S)-1-ethoxyethyl]-1,5-naphthyridin-4-yl]-1H,5H,6H,7H-pyrrolo[3,2-c]pyridin-4-one; trifluoroacetic acid]
EGFR L858R (Ba/F3 cells)
  pIC50: > 7.00
[1]
  pIC50: > 7.00
EGFR WT (Ba/F3 cells)
  pIC50: > 7.00
[5]
  pIC50: > 7.00
[2]
  pIC50: > 7.00
[3]
  pIC50: > 7.00
[4]
  pIC50: > 7.00

## COCC[C@@H]1CNC(=O)c2c1[nH]c(-c1ccncc1F)c2Nc1cccc(F)c1C [compound 823]
EGFR L858R (Ba/F3 cells)
  pIC50: > 7.00
[1]
  pIC50: > 7.00
EGFR WT (Ba/F3 cells)
  pIC50: > 7.00
[2]
  pIC50: > 7.00
[3]
  pIC50: > 7.00
[4]
  pIC50: > 7.00
